Assay: Fatty acid composition of pig tissues (ham, loin, belly, skin) after feeding SDA ethyl ester diets, 35 day study
Assay type: in vivo, pigs
Settings: 35 days
Description: A 35 day study was conducted to determine whether pigs fed a diet containing SDA could enhance tissues with improved fatty acid profiles including increased levels of SDA, EPA, and DHA.
Four test diets (Treatment 2, 3, 4, and 5) with SDA ethyl ester substituted for corn oil to provide 0.2, 0.4, 0.6 and 0.8% (w/w SDA active ingredient, as-is basis) were fed ad libitum to one pen of four pigs throughout the 35-day test period Table 4). All diets were fed in meal form. Treatment 6 was fed the same diet as Treatment 5, but for a duration of only 21 days.
All pigs were individually weighed at initiation of the acclimation and test period, and immediately prior to slaughter. Feed consumption per pen was recorded. Upon completion of the feeding period, pigs were slaughtered for tissue collection and carcass evaluation. Pigs were slaughtered using standard industry practices (electrical stunning, exsanguinations, scalding, dehairing and evisceration). Live weights prior to slaughter and hot carcass weights were recorded. The left side of each carcass was fabricated and samples were obtained from the loin (longissimus muscle), ham (semimembranosus muscle) and belly (a section from the center of the belly) for sensory evaluation, fatty acid, and proximate analysis. Prior to removing the sample for sensory and fatty and proximate analysis from the belly the firmness of the belly was evaluated using a flop test. At 24 hr postmortem fat thickness (10th rib), loin eye area (10th rib), visual color, firmness and marbling, Minolta color (L*a*b*), pH, and drip loss were measured.
In order to evaluate the fatty acid composition of pig tissues (loin, ham, skin, and belly), samples were stored at −80° C. until evaluation. After thawing, ˜22 g of fresh pig tissue was chopped into small pieces and thoroughly mixed before 10 g was sub sampled and lyophilized. Lyophilized samples were ground in 30 ml Sarstedt tubes with two ball bearings using a Mega Grinder. Ground samples (loin and ham: 50 mg; skin: 100 mg; belly: 150 mg; diet: 500 mg) were directly methylated with sulfuric acid in methanol (loin and ham: 1 mL; skin: 3 mL; belly: 10 mL; diet: 1.5 mL) sealed in the presence of butylated hydroxytoluene (50 mg BHT in 100 ml reagent) in reflux conditions of 90° C. Resultant fatty acid methyl esters (FAME's) were separated by capillary gas chromatography (GC) and detected by flame ionization detector (FID). The column used was a Supelco Omegawax 250 capillary column with dimensions of 30 m×0.25 mm×0.25 μm film thickness. The run time was 32 minutes. Peaks were identified based on their relative retention time compared to a FAME reference mixture. Quantification was achieved by using an internal standard (c15:0 triacylglyceride (TAG) for pig tissue samples and c17:0 TAG for diet samples). Results are reported as FA g/100 g fat with theoretical response correction.
For Table 6 below, each value represents g/100 g total fatty acids a mean of 4 samples (1 sample from each of 4 pigs) per treatment.

## CC/C=C\C/C=C\C/C=C\C/C=C\CCCCC(=O)O [SDA, stearidonic acid]
0.2% SDA feed
  12:0, ham: 0.06 g FA per 100 g fat
  14:0, ham: 1.06 g FA per 100 g fat
  16:0, ham: 21.24 g FA per 100 g fat
  16:1 n-7, ham: 3.58 g FA per 100 g fat
  16:1 n-9, ham: 0.26 g FA per 100 g fat
  18:0, ham: 10.13 g FA per 100 g fat
  18:1 n-7, ham: 4.55 g FA per 100 g fat
  18:1 n-9, ham: 40.91 g FA per 100 g fat
  18:2 n-6 (LA), ham: 8.86 g FA per 100 g fat
  18:3 n-3 (ALA), ham: 0.20 g FA per 100 g fat
  18:3 n-6 (GLA), ham: 0.08 g FA per 100 g fat
  18:4 n-3 (SDA), ham: 0.03 g FA per 100 g fat
  20:0, ham: 0.16 g FA per 100 g fat
  20:1 n-7, ham: 0.04 g FA per 100 g fat
  20:1 n-9, ham: 0.69 g FA per 100 g fat
  20:1 n-11, ham: 0.04 g FA per 100 g fat
  20:2 n-6, ham: 0.38 g FA per 100 g fat
  20:3 n-3, ham: 0.03 g FA per 100 g fat
  20:3 n-6 (DGLA), ham: 0.29 g FA per 100 g fat
  20:4 n-3 (ETA), ham: 0.09 g FA per 100 g fat
  20:4 n-6 (AA), ham: 1.96 g FA per 100 g fat
  20:5 n-3 (EPA), ham: 0.17 g FA per 100 g fat
  22:0, ham: 0.03 g FA per 100 g fat
  22:1 n-9, ham: 0.00 g FA per 100 g fat
  22:1 n-11, ham: 0.00 g FA per 100 g fat
  22:1 n-13, ham: 0.00 g FA per 100 g fat
  22:2 n-7, ham: 0.00 g FA per 100 g fat
  22:3 n-6, ham: 0.24 g FA per 100 g fat
  22:5 n-3 (DPA), ham: 0.39 g FA per 100 g fat
  22:6 n-3 (DHA), ham: 0.09 g FA per 100 g fat
  24:1 n-9, ham: 0.04 g FA per 100 g fat
  Total PUFA, ham: 12.82 g FA per 100 g fat
  Total monoenes, ham: 50.11 g FA per 100 g fat
  Total n-3, ham: 1.01 g FA per 100 g fat
  Total n-6, ham: 11.81 g FA per 100 g fat
  Total saturates, ham: 32.68 g FA per 100 g fat
  n-6/n-3, ham: 11.69
0.2-0.8% SDA
  DHA enrichment in ham: enriched in ham in a dose dependent manner
  DPA enrichment in loin and ham tissues: enriched in loin and ham tissues in a dose dependent manner
  SDA, ETA and EPA enrichment in belly, loin, ham and skin tissues: enriched in belly, loin, ham, and skin tissues in a dose dependent manner
0.4% SDA feed
  12:0, ham: 0.06 g FA per 100 g fat
  14:0, ham: 1.10 g FA per 100 g fat
  16:0, ham: 21.45 g FA per 100 g fat
  16:1 n-7, ham: 3.45 g FA per 100 g fat
  16:1 n-9, ham: 0.25 g FA per 100 g fat
  18:0, ham: 10.74 g FA per 100 g fat
  18:1 n-7, ham: 4.28 g FA per 100 g fat
  18:1 n-9, ham: 39.94 g FA per 100 g fat
  18:2 n-6 (LA), ham: 9.18 g FA per 100 g fat
  18:3 n-3 (ALA), ham: 0.26 g FA per 100 g fat
  18:3 n-6 (GLA), ham: 0.09 g FA per 100 g fat
  18:4 n-3 (SDA), ham: 0.03 g FA per 100 g fat
  20:0, ham: 0.16 g FA per 100 g fat
  20:1 n-7, ham: 0.04 g FA per 100 g fat
  20:1 n-9, ham: 0.66 g FA per 100 g fat
  20:1 n-11, ham: 0.04 g FA per 100 g fat
  20:2 n-6, ham: 0.36 g FA per 100 g fat
  20:3 n-3, ham: 0.04 g FA per 100 g fat
  20:3 n-6 (DGLA), ham: 0.32 g FA per 100 g fat
  20:4 n-3 (ETA), ham: 0.14 g FA per 100 g fat
  20:4 n-6 (AA), ham: 1.90 g FA per 100 g fat
  20:5 n-3 (EPA), ham: 0.23 g FA per 100 g fat
  22:0, ham: 0.04 g FA per 100 g fat
  22:1 n-9, ham: 0.01 g FA per 100 g fat
  22:1 n-11, ham: 0.00 g FA per 100 g fat
  22:1 n-13, ham: 0.00 g FA per 100 g fat
  22:2 n-7, ham: 0.00 g FA per 100 g fat
  22:3 n-6, ham: 0.26 g FA per 100 g fat
  22:5 n-3 (DPA), ham: 0.44 g FA per 100 g fat
  22:6 n-3 (DHA), ham: 0.08 g FA per 100 g fat
